# From patent publication US8748445B2, “Methods for treating glioma” (The UAB Research Foundation, priority 2004, dated 2014)
# “Also recorded” adds a separate entry of the source.
# What was measured:
# glioma cells [1] = assay: cell cycle: total DNA content by flow cytometry (propidium iodide); assay type: cell-based, human; settings: 0.5 mM (FIG. 4D)
# Method: To test whether inhibition of cystine uptake affects a specific stage of the cell cycle, changes in total DNA content were measured using flow cytometry following treatment with 0.5 mM (S)-4-CPG and 0.5 mM sulfasalazine. Cells were fixed with para-formaldehyde and stained with the nuclear marker propidium iodide after incubation with drugs.
# caspase-3 = assay: activated caspase-3 by Western blot analysis; assay type: cell-based, human; settings: 0.5 mM; D-54MG cells (FIG. 5C)
# Method: (§1) Because an accumulation of ROS can lead to apoptotic cell death, the ability of system Xc inhibitors to induce apoptosis in glioma cells was examined. […] Often apoptosis is dependent on caspase activities, so it was determined whether the system Xc inhibitors induce activated caspase-3, which is the convergent enzyme in the caspase-dependent signaling cascade. […] With 1 mM sulfasalazine, 90% of cells died over the 5 d incubation (FIG. 5E).
# [2] = test system: glioma cell lines (D-54MG, U-87MG, U-251MG and STTG1) and a primary glioma culture (GBM62); assay: growth curves of glioma cells over 5 days; assay type: cell-based, human
# Method: To examine whether the depletion of glutathione via inhibition of cystine uptake by system Xc affects the growth of glioma cells, growth curves for 4 glioma cell lines (D-54MG, U-87MG, U-251MG and STTG1) and a primary glioma culture (GBM62) were established.
# In the presence of 0.25 mM (S)-4-CPG, growth of D-54MG cells indeed recovered by the addition of fourfold excess of cystine (FIG. 3E), but not with glutamate (FIG. 3D), the second substrate for system Xc.
# [3] = test system: cortical neuronal cultures; assay: survival of cortical neuronal cultures; assay type: cell-based; settings: (S)-4-CPG 0.25 mM and 0.5 mM (FIG. 3C); sulfasalazine data not shown
# glioma cells [4] = assay: cell death by flow cytometry using the Live/Dead assay kit; assay type: cell-based, human
# Method: as §1
# [5] = test system: primary astrocyte cultures; assay: growth of primary astrocyte cultures; assay type: cell-based; settings: (S)-4-CPG 0.25 mM and 0.5 mM (FIG. 3C); sulfasalazine data not shown
# D-54MG glioma cells [6] = assay: chromosomal DNA fragmentation (apoptosis) by flow cytometry; assay type: cell-based, human; settings: 1 mM for 3 days; D-54MG (FIG. 5B)
# Method: as §1
# glioma cells [7] = assay: total intracellular glutathione content in glioma cells; assay type: cell-based, human
# Method: To determine if limiting cystine uptake via system Xc reduces the total intracellular glutathione content (GSH and glutathione disulfide), intracellular glutathione concentrations were determined in the presence and absence of sulfasalazine.
# D-54MG glioma cells [8] = assay: BrdU incorporation, ELISA-based assay; assay type: cell-based, human
# Method: (§2) BrdU incorporation was measured using an ELISA-based assay. D-54MG cells were grown in the presence or absence of inhibitors for 24 hours and pulsed for 2 hours with BrdU. The cells were cultured for an additional 48 hours and the amount of incorporated BrdU was measured using alkaline phosphatase conjugated to anti-BrdU antibodies. […] The inhibition of DNA synthesis was also seen in immunocytochemical studies.
# D-54MG glioma cells [9] = assay: BrdU incorporation, immunocytochemical studies; assay type: cell-based, human; settings: DAPI co-staining (FIG. 4B)
# Method: as §2
# glioma cells [10] = assay: rescue from (S)-4-CPG-induced cell death by caspase inhibitor; assay type: cell-based, human; settings: Boc-D-FMK 100 μM; (S)-4-CPG 0.25 mM (FIG. 5D)
# Method: Because an accumulation of ROS can lead to apoptotic cell death, the ability of system Xc inhibitors to induce apoptosis in glioma cells was examined. Exposure of D-54MG glioma cells to 1 mM (S)-4-CPG for 3 days caused 17% of the cell population to be positive for chromosomal DNA fragmentation, a classic manifestation of apoptosis (FIG. 5B). Often apoptosis is dependent on caspase activities, so it was determined whether the system Xc inhibitors induce activated caspase-3, which is the convergent enzyme in the caspase-dependent signaling cascade. […] In the continued presence of 0.5 mM (S)-4-CPG over a 5 d period, 60% of glioma cells died (FIG. 5E). With 1 mM sulfasalazine, 90% of cells died over the 5 d incubation (FIG. 5E).
# system Xc = target: T1, system Xc (Homo sapiens, UniProt Q9UPY5); assay: 35S-labeled cystine uptake in glioma lines and primary glioma culture; assay type: cell-based; settings: 5 mM L glutamate; data not shown
# T1 construct: reduced ^35S-labeled cystine uptake by 60-80% in glioma lines (d-54MG, U-87MG and U-251MG) and a primary glioma culture (GBM62); endogenous in cells; host or cells: human glioma cell lines D-54MG, U-87MG, U-251MG and primary glioma culture GBM62
# T1 sequence (Q9UPY5 1-501): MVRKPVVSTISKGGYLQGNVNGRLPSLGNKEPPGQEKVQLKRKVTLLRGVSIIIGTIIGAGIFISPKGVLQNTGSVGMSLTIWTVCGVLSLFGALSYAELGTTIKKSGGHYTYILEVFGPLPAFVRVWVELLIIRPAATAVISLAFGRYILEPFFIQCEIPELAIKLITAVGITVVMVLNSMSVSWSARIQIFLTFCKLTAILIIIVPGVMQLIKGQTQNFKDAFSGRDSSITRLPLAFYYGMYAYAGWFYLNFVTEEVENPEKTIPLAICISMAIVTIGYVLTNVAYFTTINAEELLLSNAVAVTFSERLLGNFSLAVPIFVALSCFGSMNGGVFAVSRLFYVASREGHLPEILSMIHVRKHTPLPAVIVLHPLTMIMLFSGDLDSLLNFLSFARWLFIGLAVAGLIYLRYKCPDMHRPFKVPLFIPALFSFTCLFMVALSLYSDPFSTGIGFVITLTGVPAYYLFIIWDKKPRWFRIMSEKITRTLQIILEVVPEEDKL
# T1 sequence (P08195 1-529 partner): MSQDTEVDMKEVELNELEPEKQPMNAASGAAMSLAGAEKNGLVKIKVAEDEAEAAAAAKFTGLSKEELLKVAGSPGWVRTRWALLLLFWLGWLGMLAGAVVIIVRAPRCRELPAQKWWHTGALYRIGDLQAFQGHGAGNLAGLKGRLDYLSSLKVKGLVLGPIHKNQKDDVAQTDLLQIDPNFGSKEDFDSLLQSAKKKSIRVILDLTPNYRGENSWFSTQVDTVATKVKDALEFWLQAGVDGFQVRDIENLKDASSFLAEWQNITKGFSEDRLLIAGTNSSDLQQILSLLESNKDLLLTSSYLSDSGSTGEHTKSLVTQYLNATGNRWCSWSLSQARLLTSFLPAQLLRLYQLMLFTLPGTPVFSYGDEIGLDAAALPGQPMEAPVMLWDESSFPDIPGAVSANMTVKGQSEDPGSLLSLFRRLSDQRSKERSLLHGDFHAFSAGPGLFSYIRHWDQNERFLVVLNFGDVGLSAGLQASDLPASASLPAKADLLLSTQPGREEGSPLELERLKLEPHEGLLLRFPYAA
# From the text: System Xc is a glutamate-cystine exchanger and can therefore be inhibited if the outward directed gradient for glutamate is eliminated by exposure to high concentrations of extracellular glutamate. The principal hypothesis in this study is that system Xc serves as a pipeline for cellular cystine uptake, with glutamate release being an obligatory by-product. Cystine uptake is the rate-limiting step for the synthesis of GSH, which is the main intracellular antioxidant that protects cells from oxidative stress and resulting reactive oxygen species (ROS) (Jefferies et al., 2003).
compound,measurement,setting,value
"N[C@H](C(=O)O)c1ccc(C(=O)O)cc1 [(S)-4-CPG, (S)-4-carboxyphenylglycine]",cell cycle distribution (total DNA content),glioma cells [1],a reduction of cells in G2 phase and an increase in cells in S phase
same,activated form of caspase-3,caspase-3,increased the activated form of caspase-3
same,growth of glioma cells,"[2]; 5 days, 0.1 and 0.25 mM (S)-4-CPG, 0.25 and 0.5 mM sulfasalazine, all glioma cell lines and GBM62 (FIGS. 3A, 3B)",dose-dependent growth inhibitions
same,survival/growth of cortical neuronal cultures,[3],negligible impact; also recorded: Neither (S)-4-CPG (FIG. 3C) nor sulfasalazine (data not shown) affected
same,glioma cells died,"glioma cells [4]; 0.5 mM, continued presence over a 5 d period (FIG. 5E)",60%
same,growth of primary astrocyte cultures,[5],negligible impact; also recorded: Neither (S)-4-CPG (FIG. 3C) nor sulfasalazine (data not shown) affected
same,cell population positive for chromosomal DNA fragmentation,D-54MG glioma cells [6],17%
same,intracellular glutathione concentration,"glioma cells [7]; 0.25 mM, glioma cells D-54MG, U-87MG, U-251MG and primary glioma culture GBM64 (FIG. 2F)",depleted intracellular glutathione concentration
same,reduction of incorporation of BrdU into chromosomal DNA,"D-54MG glioma cells [8]; 0.25 mM, within 48 hours, D-54MG (FIG. 4A)",50%
same,reduction of BrdU incorporation relative to 0.25 mM,"D-54MG glioma cells [8]; 0.5 mM, D-54MG (FIG. 4A)",somewhat larger reduction
same,"incorporation of BrdU, immunocytochemistry",D-54MG glioma cells [9],virtually abolished incorporation of BrdU
"COC(=O)CC(NC(=O)OC(C)(C)C)C(=O)CF [Boc-D-FMK, Boc Asp-fluoromethylketone]",rescue from cell death induced by (S)-4-CPG,glioma cells [10],a significant percentage of cells were rescued from cell death
N[C@@H](CSSC[C@H](N)C(=O)O)C(=O)O [cystine],growth of D-54MG cells in the presence of (S)-4-CPG,[2]; 0.25 mM (S)-4-CPG plus fourfold excess of cystine (FIG. 3E),recovered
same,prevention of cell death induced by (S)-4-CPG,glioma cells [4]; 0.5 mM (S)-4-CPG with 1 mM cystine (FIG. 5E),completely prevented
same,reversal of inhibition of BrdU incorporation by exogenous cystine,D-54MG glioma cells [8]; inhibition caused by 0.5 mM (S)-4-CPG and 0.5 mM sulfasalazine (FIG. 4C),able to reverse the inhibition of BrdU incorporation
N[C@@H](CCC(=O)O)C(=O)O [glutamate],competitive inhibition of cystine uptake compared with both drugs,system Xc,comparable
same,reversal of growth inhibition by (S)-4-CPG,[2]; 1 mM glutamate with 0.25 mM (S)-4-CPG (FIG. 3D),failed to overcome the inhibitory effect
same,restoration of intracellular glutathione levels,glioma cells [7]; L-glutamate with system Xc inhibitor (FIG. 3D),failed to restore intracellular glutathione levels
CCOC(=O)CNC(=O)[C@H](CS)NC(=O)CC[C@H](N)C(=O)O [glutathione ethyl ester],D-54MG glioma cell growth on coincubation,"[2]; after treatment with 0.4 mM sulfasalazine or (S)-4-CPG, GSHest 1 mM",completely restored D-54MG glioma cell growth
same,intracellular glutathione levels on coincubation,glioma cells [7]; sulfasalazine (0.4 mM) treated D-54MG glioma cells (FIG. 6A),replenished intracellular glutathione levels
vitamin E,growth of D-54MG glioma cells with free radical scavenger,[2]; in the presence of (S)-4-CPG (FIG. 5A),partially restored
